# Assay results published in ChEMBL document CHEMBL1140561, “A phosphorylated prodrug for the inhibition of Pin1” (Bioorg Med Chem Lett, 2007).
# Experiments:
# A2780 = test: Antiproliferative activity against human A2780 cells; assay type: functional, cell-based
# [1] = biological target: Peptidyl-prolyl cis-trans isomerase NIMA-interacting 1 (Homo sapiens, UniProt Q13526); test: Inhibition of Pin1 PPIase activity
# Chain of Peptidyl-prolyl cis-trans isomerase NIMA-interacting 1 (Q13526 whole entry): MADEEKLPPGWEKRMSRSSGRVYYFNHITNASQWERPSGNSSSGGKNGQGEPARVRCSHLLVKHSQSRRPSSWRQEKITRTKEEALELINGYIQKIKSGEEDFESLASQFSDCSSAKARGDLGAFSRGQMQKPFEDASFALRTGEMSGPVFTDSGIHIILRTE
IC50 (A2780) [µM],IC50 [1] [µM],SMILES
46.2,28.3,O=C(N[C@H](/C=C1\CCC[C@H]1C(=O)NCCc1c[nH]c2ccccc12)COP(=O)(O)O)OCC1c2ccccc2-c2ccccc21
26.9,,CC(C)(C)C(=O)OCOP(=O)(OCOC(=O)C(C)(C)C)OC[C@@H](/C=C1\CCC[C@H]1C(=O)NCCc1c[nH]c2ccccc12)NC(=O)OCC1c2ccccc2-c2ccccc21
